We go through three compounds from patent US4446325A, “1,4-Dihydropyridine compounds” (priority 1981, dated 1984).

One data set concerns vertebral artery. Nature of the data set: Blood flow increasing activity in vertebral artery of anesthetized dog (intravenous). As to conditions: i.v. It is filed as in vivo. As to the method: (§1) A dog was anesthetized with pentobarital sodium at a dose of 30 mg/kg (intravenous injection) and, under artificial respiration, the blood flow in the coronary, vertebral and femoral arteries was determined using an electromagnetic blood-flow meter. The blood pressure was also measured simultaneously. The test compound was dissolved in ethanol at a concentration of 1% by weight of the compound and then diluted to a volume of 10 times with a 80% aqueous solution of polyethylene glycol 400. The resulting solution was further diluted with a 0.9% physiological saline solution and administered intravenously into the femoral vein at a dose shown in Tables 1 and 2.

Data set [1] is described as follows: Stability to light (sun light, quartz dish, visual appearance). It is filed as physicochemical. As to conditions: for changes on light exposure: exposure for a total of 8 hours. Further details: key to Change in appearance on light exposure: (-): No change.
Data set [2] concerns coronary artery in enucleated heart of guinea-pig. Description: Effect on perfusion volume in coronary artery, enucleated heart of guinea-pig (Langendorf method). How it is done:
(§2) The effects of the compounds of this invention on the heat systole and the perfusion volume in the coronary artery in enucleated heart of guinea-pig were determined in accordance with the Langendorf method.

In data set [3] the test system is enucleated heart of guinea-pig. Description: Effect on heart systole, enucleated heart of guinea-pig (Langendorf method). As to the method:
as §2

Another data set has as its system femoral artery. Description: Blood flow increasing activity in femoral artery of anesthetized dog (intravenous). Type of data set: in vivo. As to conditions: i.v. As to the method:
as §1

In another data set the test system is coronary artery. Nature of the data set: Blood flow increasing activity in coronary artery of anesthetized dog (intravenous). To be noted: i.v. It is filed as in vivo. As to the method: as §1
Another data set can be described thus: in vivo. To be noted: mouse, oral, ddy male mice, mortality one week after administration.
Setting [4] is: 3 mg/kg, Table 2 (separate test).

For `COC(=O)C1=C(C)NC(C)=C(C(=O)OCC2(C)OCCO2)C1c1cccc([N+](=O)[O-])c1` (stereo not drawn) [Compound A, Methyl 2,2-ethylenedioxypropyl 2,6-dimethyl-4-(3-nitrophenyl)-1,4-dihydropyridine-3,5-dicarboxylate], the “Duration of Activity, Vertebral Artery” value in the data set on vertebral artery (1 mg/kg, Table 1) worked out at 11.7; in the data set with vertebral artery (3 mg/kg, Table 1), 27.3. Also, the “Total Increase in Blood Flow, Vertebral Artery” value amounted to 64 mL in the data set with vertebral artery (1 mg/kg, Table 1) and 288 mL in the data set on vertebral artery (3 mg/kg, Table 1). Moreover, the “Change in appearance on light exposure” value in data set [1] (5 min. sun light), in data set [1] (1 hour sun light), in data set [1] (2 hours sun light) and in data set [1] (3 hours sun light) was “(-)” throughout. The “changes on light exposure” value in data set [1] is “did not show any changes”. The “Effects on Coronary Artery: Duration of Effect” value in data set [2] (dose 1 × 10^-6 g) was 34.6 min; in data set [2] (dose 1 × 10^-7 g), 15.6 min. The results for the “Effects on Coronary Artery: Total Perfusion Volume” value in data set [2] (dose 1 × 10^-6 g) and in data set [2] (dose 1 × 10^-7 g) were 737.8 drops and 165.0 drops, respectively. Also, the “Effects on Heart Systole: Duration of Effect” value amounted to 4.6 min in data set [3] (dose 1 × 10^-6 g) and 1.3 min in data set [3] (dose 1 × 10^-7 g). Besides, the “Duration of Activity, Femoral Artery” value was found to be 9.0 with femoral artery (1 mg/kg, Table 1) and 19.3 in the data set on femoral artery (3 mg/kg, Table 1). Also, the “Total Increase in Blood Flow, Femoral Artery” value in the data set on femoral artery (1 mg/kg, Table 1) came out at 104 mL; in the data set with femoral artery (3 mg/kg, Table 1), 316 mL. Moreover, the “Duration of Activity, Coronary Artery” value with coronary artery (1 mg/kg, Table 1) was determined as 5.5; in the data set with coronary artery (3 mg/kg, Table 1), 17.5. Further, the “Total Increase in Blood Flow, Coronary Artery” value stood at 22 mL with coronary artery (1 mg/kg, Table 1) and 164 mL with coronary artery (3 mg/kg, Table 1).

Usually LD50 stands for the dose expected to kill half of the subjects tested. Take `CCCOC(=O)C1=C(C)NC(C)=C(C(=O)OCC2CC2)C1c1cccc([N+](=O)[O-])c1` (stereo not drawn) [Compound E, Cyclopropylmethyl propyl 2,6-dimethyl-4-(3-nitrophenyl)-1,4-dihydropyridine-3,5-dicarboxylate]: in the data set with vertebral artery (setting [4]), the “Duration of Activity, Vertebral Artery” value came out at 19. Moreover, the “Total Increase in Blood Flow, Vertebral Artery” value in the data set with vertebral artery (setting [4]) came to 262 mL. Moreover, the “Change in appearance on light exposure” value in data set [1] (5 min. sun light), in data set [1] (1 hour sun light), in data set [1] (2 hours sun light), in data set [1] (3 hours sun light) and in data set [1] (8 hours sun light) was “(-)” in each case. Also, in data set [1], the “changes on light exposure” value is reported as “did not show any changes”. The compound further showed an LD50 at 168 h in the data set “in vivo” of 2000 mg/kg. Also, the “Duration of Activity, Femoral Artery” value in the data set with femoral artery (setting [4]) is 20. Also, in the data set on femoral artery (setting [4]), the “Total Increase in Blood Flow, Femoral Artery” value worked out at 285 mL. In addition, in the data set on coronary artery (setting [4]), the “Duration of Activity, Coronary Artery” value stood at 22. In the data set on coronary artery (setting [4]), the “Total Increase in Blood Flow, Coronary Artery” value is 148 mL.

For the compound `COC(=O)C1=C(C)NC(C)=C(C(=O)OCC(C)=O)C1c1ccccc1[N+](=O)[O-]` (stereo not drawn) [Compound B, Methyl 2-oxopropyl 2,6-dimethyl-4-(2-nitrophenyl)-1,4-dihydropyridine-3,5-dicarboxylate], in the data set with vertebral artery (1 mg/kg, Table 1), the “Duration of Activity, Vertebral Artery” value was 7.5 and the “Total Increase in Blood Flow, Vertebral Artery” value is 29 mL. In addition, in the data set on vertebral artery (3 mg/kg, Table 1), the “Duration of Activity, Vertebral Artery” value came to 35.5 and the “Total Increase in Blood Flow, Vertebral Artery” value stood at 309 mL. Besides, in the data set on femoral artery (1 mg/kg, Table 1), the “Duration of Activity, Femoral Artery” value amounted to 4.0 and the “Total Increase in Blood Flow, Femoral Artery” value came to 20 mL. Further, in the data set on femoral artery (3 mg/kg, Table 1), the “Duration of Activity, Femoral Artery” value is 58.5 and the “Total Increase in Blood Flow, Femoral Artery” value was found to be 774 mL. For the same compound, in the data set with coronary artery (1 mg/kg, Table 1), the “Duration of Activity, Coronary Artery” value was found to be 10.0 and the “Total Increase in Blood Flow, Coronary Artery” value is 37 mL. Moreover, in the data set on coronary artery (3 mg/kg, Table 1), the “Duration of Activity, Coronary Artery” value stood at 35.0 and the “Total Increase in Blood Flow, Coronary Artery” value was determined as 392 mL.
